The values that follow come from patent US20260085034A1, “N-(BENZHYDRYL)CYCLOALKYLCARBOXAMIDE DERIVATIVES AS INHIBITORS OF GLYCOGEN SYNTHASE 1 (GYS1) AND METHODS OF USE THEREOF” (Maze Therapeutics, Inc., priority 2022, published 2026).

The IC50 is the concentration at which inhibition is half-maximal.

In this assay the test system is glycogen synthesis in HeLa cells (hGYS1). The assay is described as follows: GYS1 cell based assay (glycogen digestion, Glucose-glo). The following applies: Homo sapiens, 24 h incubation, 20 mM glucose, geometric mean of at least 2 runs, read-out: Cellular IC50. From the text: The GYS1 cell based assay is a bioluminescent assay that quantifies the glucose resulting from glycogen digestion; the quantified glucose is an indirect measure of GYS1 glycogen synthesis. Newly synthesized glycogen is digested using Glucoamylase; the resulting glucose is quantified by using the Glucose-glo assay kit from Promega. Glucose-glo works by coupling glucose oxidation and NADH production with a bioluminescent system that is activated with NADH. Glucose is oxidized by Glucose dehydrogenase and the reaction reduces NAD+ to NADH; NADH activates Reductase which reduces a pro-luciferin Reductase Substrate to luciferin. Luciferin is detected in a luciferase reaction using Ultra-Glo rLuciferase and ATP, and the luminesce produced is proportional to the glucose in the sample. The luminescence is measured as a single point read in a plate reader.
Compounds that inhibit the hGYS1 enzyme and, subsequently, the glycogen synthesis in cells, were tested using assay ready plates (white, clear bottom 384 well plates) in a final DMSO reaction volume of 1% DMSO. Compounds in the assay ready plates were mixed with media with no additives, except for 20 mM glucose prior to cell addition. HeLa cells were starved in media with no additives, except for 1× Glutamax for 24 h. Starved HeLa cells were plated, in a 1:1 ratio to the media in the assay ready plate and incubated for 24 h at 37° C. and 5% CO2. Cells were washed in 1×PBS buffer and lysed in lysis buffer containing 50% 1×PBS and 25% 0.3 N HCl of the final volume in the well or reaction volume; cells were incubated with lysis buffer for 10 minutes and quenched with the remaining 25% of the reaction volume that consisted of 450 mM Tris pH 8.0. Lysates were mixed in a 1:1 ratio with Glucoamylase in 100 mM Sodium Acetate buffer, pH 5.3; the mixture was incubated for 1 h at 37° C. The digested lysate was mixed in a 1:1 ratio with Glucose-glo detection mixture as per vendor recommendations (Luciferase detection buffer, Reductase, Reductase substrate, Glucose dehydrogenase, and NAD) in read-out plates (solid white 384-well plates) and incubated for 1 h at RT. The plates were read using a plate reader with luminescence capabilities. Each compound concentration Relative Luminescence Unit (RLU) was averaged and normalized to the average RLU of the positive and negative controls to obtain a percentage inhibition. The normalized data vs. concentration was plotted; to determine the half-maximal concentration (IC50), the Levenberg-Marquardt algorithm was used to fit a Hill equation to the dose response data.
The results are shown in Table 4 below, which reports the IC50 of each compound. Unless otherwise specified, IC50 values are reported as the geometric mean of at least 2 assay runs on separate days. As shown in the table below, the compounds of the present invention are potent inhibitors of human GYS1. […] Each run represents the average of a technical replicate, where each compound was assayed twice in the same plate.

As to `CC(C)c1ccc([C@@H](NC(=O)[C@H]2C[C@@H]2F)c2ccn[nH]2)cc1F` (single isomer, unassigned) [compound 11], the IC50 came out at 3.28 µM.
